From the NIST ThermoML archive (doi:10.1021/je0601255)

Experiment: xn = mol fraction of the nth substance listed
Conditions: 101 kPa, Liquid; for viscosity: Capillary tube (Ostwald / Ubbelohde) method; for mass density: Pycnometric method

C=C(C)C(=O)OCCO [2-hydroxyethyl 2-methyl-2-propenoate] + CCCCO
Conditions	mass density, 288.15 K [kg/m3]	mass density, 298.15 K [kg/m3]	mass density, 308.15 K [kg/m3]	mass density, 318.15 K [kg/m3]	viscosity, 288.15 K [mPa·s]	viscosity, 298.15 K [mPa·s]	viscosity, 308.15 K [mPa·s]	viscosity, 318.15 K [mPa·s]
x2 = 0	1074.7	1067.1	1057.7	1048.6	8.234	5.784	4.194	3.181
x2 = 0.1	1054.5	1047.1	1037.9	1029.1	7.303	5.188	3.822	2.963
x2 = 0.2	1033.3	1025.9	1016.9	1008.3	6.437	4.643	3.432	2.692
x2 = 0.3	1010.9	1003.6	994.8	986.3	5.681	4.154	3.109	2.43
x2 = 0.4	987.3	980	971.3	963	5.118	3.738	2.829	2.222
x2 = 0.5	962.2	955.1	946.6	938.3	4.633	3.398	2.598	2.051
x2 = 0.6	935.7	928.6	920.3	912.1	4.195	3.092	2.399	1.9
x2 = 0.7	907.6	900.6	892.4	884.4	3.833	2.834	2.212	1.759
x2 = 0.8	877.7	870.8	862.9	855	3.534	2.666	2.089	1.657
x2 = 0.9	846	839.2	831.5	823.8	3.321	2.583	2.018	1.609

C=C(C)C(=O)O [2-methyl-2-propenoic acid] + CCCCO
Conditions	mass density, 288.15 K [kg/m3]	mass density, 298.15 K [kg/m3]	mass density, 308.15 K [kg/m3]	mass density, 318.15 K [kg/m3]	viscosity, 288.15 K [mPa·s]	viscosity, 298.15 K [mPa·s]	viscosity, 308.15 K [mPa·s]	viscosity, 318.15 K [mPa·s]
x2 = 0	1018.3	1009.5	999.4	989.2	1.447	1.267	1.078	0.945
x2 = 0.1	996.3	987.7	978	968.1	1.632	1.4	1.174	1.015
x2 = 0.2	974.7	966.5	957.4	948.1	1.818	1.534	1.275	1.09
x2 = 0.3	954.3	946.3	937.7	928.7	2.009	1.672	1.377	1.16
x2 = 0.4	934.2	926.6	918.1	909.3	2.2	1.81	1.476	1.227
x2 = 0.5	914.2	907	898.6	890.1	2.392	1.947	1.574	1.294
x2 = 0.6	894.2	887.4	879	870.6	2.576	2.079	1.667	1.355
x2 = 0.7	874.1	867.3	859.1	851	2.756	2.204	1.756	1.413
x2 = 0.8	853.7	847	839.2	831.4	2.935	2.329	1.842	1.466
x2 = 0.9	832.9	826.7	819.1	811.5	3.111	2.453	1.925	1.515

C=C(C)C(=O)OCc1ccccc1 [benzyl methacrylate] + CCCCO
Conditions	mass density, 288.15 K [kg/m3]	mass density, 298.15 K [kg/m3]	mass density, 308.15 K [kg/m3]	mass density, 318.15 K [kg/m3]	viscosity, 288.15 K [mPa·s]	viscosity, 298.15 K [mPa·s]	viscosity, 308.15 K [mPa·s]	viscosity, 318.15 K [mPa·s]
x2 = 0	1041.2	1034.7	1025.8	1017	2.871	2.302	1.885	1.58
x2 = 0.1	1027.8	1021.3	1012.5	1003.9	2.655	2.123	1.746	1.455
x2 = 0.2	1013.3	1006.8	998.1	989.5	2.519	2.021	1.656	1.388
x2 = 0.3	997.5	990.9	982.3	973.8	2.462	1.958	1.605	1.342
x2 = 0.4	979.9	973.3	964.8	956.4	2.41	1.919	1.568	1.308
x2 = 0.5	960.3	953.7	945.3	937	2.384	1.868	1.525	1.272
x2 = 0.6	938.3	931.6	923.4	915.2	2.375	1.834	1.505	1.247
x2 = 0.7	913.2	906.6	898.5	890.4	2.427	1.863	1.508	1.244
x2 = 0.8	884.5	877.9	869.9	862	2.51	1.982	1.59	1.302
x2 = 0.9	851.3	844.6	836.8	829.1	2.704	2.168	1.727	1.394
